Results published in US10183062B2, “Treatment for cancer” (The University of Nottingham, priority 2013, dated 2019).
Where two headings read alike, the source gives them in different places.

Legend:
[1] = test system: HCT116 tumours; assay: Mouse xenograft tumour growth delay (CDEPT); assay type: in vivo, NMRI nu/nu mice; conditions: prodrug alone, 15 mg/kg i.p., 5 consecutive days
Description: Human colorectal HCT116 carcinoma cells were grown in DMEM medium supplemented with 10% FBS, trypsinized and injected subcutaneously in 100 μl PBS/ . . . % matrigel at a concentration of 5.10^6 cells in the abdominal flank of adult NMRI nu/nu mice. As soon as tumours were palpable, tumour volumes were determined three times per week by measuring three orthogonal diameters using calipers. Volumes were calculated according to the formula V=A×B×C×/6. All experiments were conducted in accordance with local institutional guidelines of the University of Leuven, approved by the animal ethics committee and procedures were according to the guidelines defined by the UKCCCR (12). […] Tumour growth delay was determined for each individual tumour within the different groups as the time necessary to reach three times their initial volume at the start of the treatment. […]
Since strains E1 and N1 express stably-integrated NTR under the regulatory control of a strong promoter without inclusion of any antibiotic resistance gene, it was next determined whether administration of these clinically-applicable strains in combination with prodrug administration to tumour-bearing animals would result in anti-tumour efficacy. It was first evaluated whether inactivation of pyrE affected the tumour-colonizing capacity of systemically administered spores. […]

[2] = test system: E. coli NfnB variant N71S/F124K; conditions: Searle et al., 2004 and Race et al., 2007, cited from earlier work
[3] = test system: E. coli NfsA nitroreductase; conditions: Vass et al., 2009, cited from earlier work; for Km: read-out: Km^CB1954
[4] = test system: E. coli NfnB nitroreductase, wild type; conditions: Knox et al., 1992, cited from earlier work
[5] = test system: HinNTR, NTR from Haemophilus influenzae; conditions: Theys et al., 2006, cited from earlier work

## NC(=O)c1cc(N2CC2)c([N+](=O)[O-])cc1[N+](=O)[O-] [CB1954, 5-(aziridin-1-yl)-2,4-dinitrobenzamide]
[1]
  tumour growth delay: did not result in any effect
[2]; CB1954
  Kcat: 7.5 S^−1
[2]; read-out: Km^CB1954
  Km: 170 µM
[3]; CB1954, cofactor NADH
  Kcat: 2.60 (NADH) S^−1
[3]; CB1954, cofactor NADPH
  Kcat: 20.9 (NADPH) S^−1
[3]; cofactor NADH
  Km: 18 µM
[3]; cofactor NADPH
  Km: 140 µM
[4]; CB1954
  Kcat: 6 S^−1
[4]; read-out: Km^CB1954
  Km: 862 µM
[5]; CB1954
  Kcat: 56.2 S^−1
[5]; read-out: Km^CB1954
  Km: 690 µM
